Data reported in PMC7997369, “Assessment of the Multifunctional Behavior of Lupin Peptide P7 and Its Metabolite Using an Integrated Strategy” (Journal of Agricultural and Food Chemistry, 2020).
No end group written: not given here.

Columns and labels:
[1] = target: T1, HMGCoAR (catalytic domain) (Homo sapiens, UniProt P04035); test: In vitro HMGCoAR inhibitory activity assay; format: biochemical; conditions: 37 °C, NADPH absorbance at 340 nm, mean ± sd of three independent experiments in triplicate
T1 construct: finally the HMGCoAR (catalytic domain) (2 µL); purchased Sigma
T1 sequence (P04035 426-888 limits assumed): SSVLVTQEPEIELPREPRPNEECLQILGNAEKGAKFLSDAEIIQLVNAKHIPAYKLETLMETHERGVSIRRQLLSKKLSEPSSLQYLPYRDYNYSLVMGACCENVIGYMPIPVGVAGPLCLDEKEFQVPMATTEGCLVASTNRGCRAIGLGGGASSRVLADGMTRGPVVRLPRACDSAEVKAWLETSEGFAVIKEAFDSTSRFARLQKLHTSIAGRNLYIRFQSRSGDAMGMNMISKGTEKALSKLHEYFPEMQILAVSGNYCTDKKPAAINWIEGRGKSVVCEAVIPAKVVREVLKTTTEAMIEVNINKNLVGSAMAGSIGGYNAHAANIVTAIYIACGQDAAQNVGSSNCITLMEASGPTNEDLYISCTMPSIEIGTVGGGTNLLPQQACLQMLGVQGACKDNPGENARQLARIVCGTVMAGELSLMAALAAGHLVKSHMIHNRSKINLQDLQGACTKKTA
Description: The assay buffer, NADPH, substrate solution, and HMGCoAR were provided in the HMGCoAR assay kit (Sigma). The experiments were carried out testing LTFPG at 100 and 250 μM at 37 °C in agreement with the conditions previously reported.[8] For further details, see the Supporting Information.
The assay buffer, NADPH, substrate solution, and HMGCoAR were provided in the HMGCoAR Assay Kit (Sigma). The experiments were carried out following the manufacturer’s instructions at 37 °C. In particular, each reaction (200 µL) was prepared adding the reagents in the following order: 1 X assay buffer, LTFPG (100.0 and 250.0 µM) or vehicle (C), the NADPH (4 µL), the substrate solution (12 µL), and finally the HMGCoAR (catalytic domain) (2 µL). Subsequently, the samples were mixed and the absorbance at 340 nm read by a microplate reader Synergy H1 from Biotek at time 0 and 10 min. The HMGCoAR-dependent oxidation of NADPH and the inhibition properties of lupin peptides were measured by absorbance reduction, which is directly proportional to enzyme […]
In vitro ACE-inhibitory assay […]
The evaluation of the inhibition of ACE activity was based on the comparison between the concentrations of HA in the presence or absence of the inhibitor (Inhibitor Blank). The phenomenon of autolysis of HHL to give HA was evaluated by a reaction blank, i.e. a sample with the higher

[2] = target: angiotensin-converting enzyme (ACE) (Homo sapiens, UniProt P12821); test: Cellular ACE inhibitory assay in undifferentiated intestinal Caco-2 cells; format: cell-based; parameters: endogenous in cells; host or cells: Caco-2 cells (INSERM, Paris); conditions: Caco-2 cells treated 24 h at 37 °C with P7 0.1–250 μM; ACE activity in cell lysates, fluorescent Abz substrate; mean ± sd of three independent experiments in triplicate
Description: HK-2 cells from the American Type Culture Collection (ATCC) were cultured using Dulbecco’s modified Eagle’s medium–F12 (DMEM–F12) containing 25 mM glucose, 4 mM stable L-glutamine, 100 units […] penicillin, and 100 μg […] streptomycin, supplemented with 10% heat-inactivated fetal bovine serum (FBS, Hyclone Laboratories, Logan, UT, U.S.A.). […]
For the experiments, HK-2 and Caco-2 cells were seeded on 96-well plates at a density of 5 × 10^4 cells/well for 24 h. […] Total proteins were quantified by the Bradford method, and 2 μL of the supernatant (the equivalent of 2 μg of total proteins) was added to 18 μL of ACE1 lysis buffer in each well in a black 96-well plate with a clear bottom. […] Then, 20 μL of diluted ACE1 substrate [o-aminobenzoyl peptide (Abz-based peptide) substrate, 4% of ACE1 substrate in the assay buffer] was added in each well, except the background well, and the fluorescence (excitation/emission of 330/430 nm) was measured in a kinetic mode for 10 min at 37 °C.

Chain of angiotensin-converting enzyme (ACE) (P12821 30-1306): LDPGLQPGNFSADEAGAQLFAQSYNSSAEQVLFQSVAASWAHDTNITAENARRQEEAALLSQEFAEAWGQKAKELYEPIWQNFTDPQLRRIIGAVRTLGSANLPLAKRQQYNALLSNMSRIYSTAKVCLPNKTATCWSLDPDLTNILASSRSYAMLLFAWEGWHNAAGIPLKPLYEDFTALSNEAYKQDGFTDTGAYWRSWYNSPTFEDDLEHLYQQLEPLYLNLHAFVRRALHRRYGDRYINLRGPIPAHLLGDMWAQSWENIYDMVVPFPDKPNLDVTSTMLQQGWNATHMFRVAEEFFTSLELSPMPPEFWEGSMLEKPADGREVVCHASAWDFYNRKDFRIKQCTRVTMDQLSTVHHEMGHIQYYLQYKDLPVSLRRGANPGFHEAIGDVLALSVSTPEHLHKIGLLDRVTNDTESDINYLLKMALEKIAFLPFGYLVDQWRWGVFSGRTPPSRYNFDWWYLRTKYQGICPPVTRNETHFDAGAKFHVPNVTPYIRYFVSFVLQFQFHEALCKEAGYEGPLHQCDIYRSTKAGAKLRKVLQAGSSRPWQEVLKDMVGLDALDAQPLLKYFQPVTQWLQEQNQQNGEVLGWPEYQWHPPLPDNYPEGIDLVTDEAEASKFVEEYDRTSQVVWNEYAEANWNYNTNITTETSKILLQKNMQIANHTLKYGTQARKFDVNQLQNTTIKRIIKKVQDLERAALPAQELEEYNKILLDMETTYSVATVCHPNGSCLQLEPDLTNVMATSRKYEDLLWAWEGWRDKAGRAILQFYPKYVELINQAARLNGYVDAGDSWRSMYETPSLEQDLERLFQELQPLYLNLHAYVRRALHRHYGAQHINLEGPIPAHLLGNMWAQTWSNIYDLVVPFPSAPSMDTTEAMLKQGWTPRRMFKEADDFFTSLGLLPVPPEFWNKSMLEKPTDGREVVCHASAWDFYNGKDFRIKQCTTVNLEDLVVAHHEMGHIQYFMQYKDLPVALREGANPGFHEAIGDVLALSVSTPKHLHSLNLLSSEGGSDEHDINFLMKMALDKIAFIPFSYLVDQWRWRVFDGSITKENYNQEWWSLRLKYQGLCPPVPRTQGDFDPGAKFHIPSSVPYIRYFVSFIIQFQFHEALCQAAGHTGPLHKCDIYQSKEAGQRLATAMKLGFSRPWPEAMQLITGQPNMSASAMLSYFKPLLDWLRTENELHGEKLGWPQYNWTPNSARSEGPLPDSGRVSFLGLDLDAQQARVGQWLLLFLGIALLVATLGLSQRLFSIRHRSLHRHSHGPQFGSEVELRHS

Substance | inhibition at 100 µM ([1]; 100 μM) [%] | inhibition at 250 µM ([1]; 250 μM) [%] | IC50 [2] [µM]
LTFPG [LTFPG] | 4.7 ± 0.3 | 10.3 ± 0.8 | –
LTFPGSAED [P7] | – | – | 13.7
